# Target: PIK3CG (human) (UniProt P48736)
# Experiment: Inhibition of PIK3CG Kinase Assay
# Sequence of PIK3CG (human) (P48736 whole entry, looked up): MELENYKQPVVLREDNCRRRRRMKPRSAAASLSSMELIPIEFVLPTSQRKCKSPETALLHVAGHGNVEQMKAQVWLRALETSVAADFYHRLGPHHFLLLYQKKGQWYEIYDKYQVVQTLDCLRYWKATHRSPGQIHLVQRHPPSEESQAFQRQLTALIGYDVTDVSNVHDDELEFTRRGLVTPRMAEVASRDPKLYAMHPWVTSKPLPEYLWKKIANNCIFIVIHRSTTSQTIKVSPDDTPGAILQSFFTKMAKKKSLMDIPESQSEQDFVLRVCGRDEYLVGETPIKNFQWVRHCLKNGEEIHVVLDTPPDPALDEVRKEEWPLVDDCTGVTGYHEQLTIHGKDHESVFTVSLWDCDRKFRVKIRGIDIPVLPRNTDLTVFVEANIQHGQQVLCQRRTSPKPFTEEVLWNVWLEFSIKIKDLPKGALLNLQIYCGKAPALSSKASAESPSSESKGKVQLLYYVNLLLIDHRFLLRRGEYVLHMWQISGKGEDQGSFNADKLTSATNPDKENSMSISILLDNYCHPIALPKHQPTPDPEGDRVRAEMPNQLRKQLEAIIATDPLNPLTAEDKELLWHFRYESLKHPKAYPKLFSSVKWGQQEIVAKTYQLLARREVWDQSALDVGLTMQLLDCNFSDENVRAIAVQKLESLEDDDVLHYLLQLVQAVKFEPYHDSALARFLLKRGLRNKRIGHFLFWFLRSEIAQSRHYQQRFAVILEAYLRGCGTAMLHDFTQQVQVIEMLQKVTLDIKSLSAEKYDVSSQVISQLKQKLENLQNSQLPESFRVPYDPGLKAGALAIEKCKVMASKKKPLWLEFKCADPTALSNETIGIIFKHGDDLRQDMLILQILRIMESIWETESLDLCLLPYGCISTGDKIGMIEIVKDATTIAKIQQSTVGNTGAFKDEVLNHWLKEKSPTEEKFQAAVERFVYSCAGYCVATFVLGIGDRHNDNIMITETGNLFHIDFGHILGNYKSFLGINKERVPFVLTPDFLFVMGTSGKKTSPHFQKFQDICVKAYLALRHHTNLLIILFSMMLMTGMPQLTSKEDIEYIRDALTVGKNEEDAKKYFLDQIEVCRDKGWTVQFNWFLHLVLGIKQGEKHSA
row,SMILES,IC50 [nM]
1,COc1cncc(C(=O)NC2=Nc3ccccc3C3=NCCN23)c1,100 to 500
2,COc1ccc2c(c1Br)N=C(NC(=O)c1cccnc1)N1CCN=C21,≤ 100
3,O=C(NC1=Nc2cc(Cl)ccc2C2=NCCN12)c1ccc2[nH]cnc2c1,≤ 100
4,O=C(O)CCc1ccc2c(n1)N=C(/C=C(\O)c1cccnc1)N1CCN=C21,100 to 500
5,CC(=O)Nc1ccc(/C(O)=C/C2=Nc3c(CN4CCOCC4)cccc3C3=NCCN23)cn1,100 to 500
6,O=C(NC1=Nc2ccccc2C2=NCCN12)c1ccc(-n2ccnc2)cc1,> 2000
7,Cc1ccc(/C(O)=C/C2=Nc3ccccc3C3=NCCN23)cn1,100 to 500
8,Cc1nc2ncccc2cc1C(=O)NC1=Nc2ccccc2C2=NCCN12,100 to 500
9,O=C(NC1=Nc2c(F)cccc2C2=NCCN12)c1ccc2[nH]cnc2c1,≤ 100
10,O=C(NC1=Nc2ccccc2C2=NCCN12)c1ccc(Cl)cc1,> 2000
11,O/C(=C\C1=Nc2cc(N3CCOCC3)ccc2C2=NCCN12)c1cncc(O)c1,≤ 100
12,COc1ccc2c(c1OC)N=C(NC(=O)c1ccc3[nH]cnc3c1)N1CCN=C21,≤ 100
13,COc1c(OCc2nn[nH]n2)ccc2c1N=C(/C=C(\O)c1cccnc1)N1CCN=C21,≤ 100
14,O/C(=C\C1=Nc2cc(-c3ccccc3)ccc2C2=NCCN12)c1cccnc1,100 to 500
15,COc1cc2c(c(OC)c1C)N=C(NC(=O)c1ccc3[nH]cnc3c1)N1CCN=C21,100 to 500
16,COc1cc2c(c(OC)c1C)N=C(NC(=O)c1cccnc1C)N1CCN=C21,≤ 100
17,Cc1ccc2c(c1OCCN1CCOCC1)N=C(/C=C(\O)c1cccnc1)N1CCN=C21,100 to 500
18,Cc1cccc2c1N=C(/C=C(\O)c1cccnc1)N1CCN=C21,100 to 500
19,O/C(=C\C1=Nc2cc(CN3CCOCC3)ccc2C2=NCCN12)c1cccnc1,100 to 500
20,COc1cc2c(cc1OC)C1=NCCN1C(/C=C(\O)c1sc(C)nc1C)=N2,≤ 100
21,CC(=O)Nc1ccc(/C(O)=C/C2=Nc3cc(N4CCOCC4)ccc3C3=NCCN23)cn1,≤ 100
22,COc1ccc2c(c1OCCN1CCOCC1)N=C(/C=C(\O)c1cccnc1)N1CCN=C21,≤ 100
23,O/C(=C\C1=Nc2ccccc2C2=NCCN12)c1cccs1,≤ 100
24,O=C(NC1=Nc2ccccc2C2=NCCN12)c1csc([N+](=O)[O-])c1,> 2000
25,Cc1cc(Br)c2c(c1)C1=NCCN1C(/C=C(\O)c1ccc3[nH]cnc3c1)=N2,100 to 500
26,O/C(=C\C1=Nc2ccccc2C2=NCCN12)c1csc2ccccc12,> 2000
27,COc1cc(OC)c2c(c1)C1=NCCN1C(NC(=O)c1ccc(NC(C)=O)nc1)=N2,100 to 500

row,SMILES,IC50 [nM]
1,Cc1cccc2c1N=C(NC(=O)c1ccc3[nH]cnc3c1)N1CCN=C21,≤ 100
2,O=C(NC1=Nc2ccccc2C2=NCCN12)c1csc(-c2ccncc2)n1,> 2000
3,COc1c(OCC(N)=O)ccc2c1N=C(/C=C(\O)c1cccnc1)N1CCN=C21,≤ 100
4,O=C(NC1=Nc2ccc(F)cc2C2=NCCN12)c1cccs1,500 to 2000
5,O=C(NC1=Nc2ccc(Cl)cc2C2=NCCN12)c1cccnc1,≤ 100
6,O/C(=C\C1=Nc2ccccc2C2=NCCN12)c1cccnc1,100 to 500
7,O=C(NC1=Nc2cc(Cl)ccc2C2=NCCN12)c1cccnc1,100 to 500
8,O/C(=C\C1=Nc2c(Br)cccc2C2=NCCN12)c1cccnc1,100 to 500
9,COc1c(C)ccc2c1N=C(/C=C(\O)c1ccc(NC(C)=O)nc1)N1CCN=C21,≤ 100
10,O=C(NC1=Nc2cc(N3CCOCC3)ccc2C2=NCCN12)c1cncc(O)c1,≤ 100
11,O=C(NC1=Nc2ccccc2C2=NCCN12)c1ccco1,500 to 2000
12,COc1cccc2c1N=C(NC(=O)c1ccc3[nH]cnc3c1)N1CCN=C21,≤ 100
13,CNc1ccc(C(=O)NC2=Nc3ccccc3C3=NCCN23)cn1,100 to 500
14,O=C(NC1=Nc2ccccc2C2=NCCN12)c1csc(-c2cccnc2)n1,> 2000
15,Cc1ncccc1C(=O)NC1=Nc2ccccc2C2=NCCN12,≤ 100
16,O=C(NC1=Nc2ccc(Br)cc2C2=NCCN12)c1cccnc1,100 to 500
17,Cc1ccc(C(=O)NC2=Nc3ccccc3C3=NCCN23)c(Cl)n1,500 to 2000
18,COc1cccc2c1N=C(/C=C(\O)c1cccnc1)N1CCN=C21,≤ 100
19,O=C(NC1=Nc2ccccc2C2=NCCN12)c1ccc(-n2cccc2)cc1,> 2000
20,CCn1nc(C)cc1C(=O)NC1=Nc2ccccc2C2=NCCN12,100 to 500
21,COc1cc2c(cc1OC)C1=NCCN1C(/C=C(\O)c1ccc3[nH]cnc3c1)=N2,≤ 100
22,COc1cc2c(c(OC)c1C)N=C(/C=C(\O)c1ccc3[nH]cnc3c1)N1CCN=C21,100 to 500
23,Cc1ccc2c(c1)N=C(NC(=O)c1cccs1)N1CCN=C21,100 to 500
24,COc1c(OCC(=O)N(C)C)ccc2c1N=C(/C=C(\O)c1cccnc1)N1CCN=C21,≤ 100
25,O=C(NC1=Nc2c(cccc2C(F)(F)F)C2=NCCN12)c1ccc2[nH]cnc2c1,≤ 100
26,Cc1ccc2c(c1)C1=NCCN1C(/C=C(\O)c1cccnc1)=N2,100 to 500
27,O/C(=C\C1=Nc2c(CN3CCOCC3)cccc2C2=NCCN12)c1cccnc1,100 to 500

row,SMILES,IC50 [nM]
1,COc1cc(OC)c2c(c1)C1=NCCN1C(/C=C(\O)c1cccnc1)=N2,≤ 100
2,COc1cccc2c1N=C(NC(=O)c1cc3cccnc3nc1C)N1CCN=C21,≤ 100
3,O/C(=C\C1=Nc2c(OCC3CC3)cccc2C2=NCCN12)c1cccnc1,100 to 500
4,O=C(NC1=Nc2cc(OCC(=O)N3CCOCC3)ccc2C2=NCCN12)c1cccnc1,100 to 500
5,O=C(NC1=Nc2cc(OCCOCCO)ccc2C2=NCCN12)c1cccnc1,100 to 500
6,Cc1nc2ccccn2c1C(=O)NC1=Nc2ccccc2C2=NCCN12,100 to 500
7,O=C(NC1=Nc2cc(N3CCCCC3)ccc2C2=NCCN12)c1cccnc1,100 to 500
8,C=Cc1ccc2c(c1)C1=NCCN1C(NC(=O)c1cccnc1)=N2,100 to 500
9,O=C(NC1=Nc2ccccc2C2=NCCN12)c1cnc2[nH]cnc2c1,≤ 100
10,O/C(=C\C1=Nc2ccccc2C2=NCCN12)c1cnccn1,100 to 500
11,CS(=O)(=O)c1ccc(C(=O)NC2=Nc3ccccc3C3=NCCN23)cc1,> 2000
12,CC(=O)Nc1ccc(/C(O)=C/C2=Nc3c(C)cccc3C3=NCCN23)cn1,≤ 100
13,COc1ccc2c(c1)N=C(NC(=O)c1ccc(N)nc1)N1CCN=C21,≤ 100
14,COc1ccc2c(c1)N=C(NC(=O)c1ccc3[nH]cnc3c1)N1CCN=C21,≤ 100
15,Cc1cc(C(=O)NC2=Nc3ccccc3C3=NCCN23)cnc1N,100 to 500
16,COc1cc(C(=O)NC2=Nc3ccccc3C3=NCCN23)cc(OC)c1C,> 2000
17,CN(C)C=Nc1cncc(C(=O)NC2=Nc3ccccc3C3=NCCN23)c1,100 to 500
18,O=C(NC1=Nc2ccccc2C2=NCCN12)c1cnccn1,500 to 2000
19,O=C(NC1=Nc2cc(OCCO)ccc2C2=NCCN12)c1cccnc1,100 to 500
20,COc1cccc2c1N=C(NC(=O)c1cccnc1)N1CCN=C21,≤ 100
21,COc1c(C)ccc2c1N=C(/C=C(\O)c1ccc3[nH]cnc3c1)N1CCN=C21,≤ 100
22,O=C(NC1=Nc2ccccc2C2=NCCN12)c1ccc([N+](=O)[O-])s1,> 2000
23,COc1c(C)cc(C(=O)NC2=Nc3ccccc3C3=NCCN23)cc1C,> 2000
24,O/C(=C\C1=Nc2c(OCCN3CCOCC3)cccc2C2=NCCN12)c1cccnc1,100 to 500
25,O/C(=C\C1=Nc2ccccc2C2=NCCN12)c1ccccn1,500 to 2000
26,O/C(=C\C1=Nc2cc(N3CCOCC3)ccc2C2=NCCN12)c1cccnc1,100 to 500

# From the Kinase Knowledgebase extract (Sharma et al. 2016)
